These are literature values, as cited in patent US20230303712A1, “METHODS OF TREATING GLIOBLASTOMA” (Ramot at Tel-Aviv University Ltd., priority 2020, published 2023).

Data set [1] addresses T1, L-Selectin (Homo sapiens, UniProt P14151).
T1 sequence (P14151 39-372): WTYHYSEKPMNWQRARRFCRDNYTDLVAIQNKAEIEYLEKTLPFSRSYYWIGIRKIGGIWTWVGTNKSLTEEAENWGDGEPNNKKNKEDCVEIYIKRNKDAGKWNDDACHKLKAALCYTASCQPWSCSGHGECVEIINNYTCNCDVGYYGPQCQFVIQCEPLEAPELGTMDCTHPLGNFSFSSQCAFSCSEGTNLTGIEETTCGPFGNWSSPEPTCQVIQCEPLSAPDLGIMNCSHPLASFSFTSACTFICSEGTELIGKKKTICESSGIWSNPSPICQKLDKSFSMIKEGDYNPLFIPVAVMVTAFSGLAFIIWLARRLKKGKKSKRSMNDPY
Conditions: in humans in vitro; cited from earlier work.

The target in data set [2] is T2, P-Selectin (Homo sapiens, UniProt P16109).
T2 sequence (P16109 42-830): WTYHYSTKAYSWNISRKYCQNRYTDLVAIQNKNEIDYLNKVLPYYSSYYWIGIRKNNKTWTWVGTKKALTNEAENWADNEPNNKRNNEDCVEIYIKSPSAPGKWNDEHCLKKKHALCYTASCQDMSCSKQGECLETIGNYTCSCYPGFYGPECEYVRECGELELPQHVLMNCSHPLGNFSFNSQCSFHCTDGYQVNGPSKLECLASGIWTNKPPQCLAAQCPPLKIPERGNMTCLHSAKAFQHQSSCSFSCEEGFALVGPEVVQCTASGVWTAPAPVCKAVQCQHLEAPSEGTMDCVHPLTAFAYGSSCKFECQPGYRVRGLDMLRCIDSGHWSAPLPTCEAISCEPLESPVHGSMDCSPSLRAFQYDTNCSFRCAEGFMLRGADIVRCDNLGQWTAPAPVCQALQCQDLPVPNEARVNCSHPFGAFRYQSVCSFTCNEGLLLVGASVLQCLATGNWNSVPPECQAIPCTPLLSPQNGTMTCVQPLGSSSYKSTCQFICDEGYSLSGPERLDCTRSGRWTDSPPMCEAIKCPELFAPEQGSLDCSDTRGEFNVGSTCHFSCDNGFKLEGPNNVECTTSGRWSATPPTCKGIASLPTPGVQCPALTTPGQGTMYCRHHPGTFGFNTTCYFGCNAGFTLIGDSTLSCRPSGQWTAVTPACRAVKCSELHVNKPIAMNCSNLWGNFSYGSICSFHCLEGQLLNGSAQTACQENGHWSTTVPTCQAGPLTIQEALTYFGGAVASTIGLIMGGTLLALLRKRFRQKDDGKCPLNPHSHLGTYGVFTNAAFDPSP
Conditions: in humans in vitro; cited from earlier work.

For data set [3], the target named is T3, E-Selectin (Homo sapiens, UniProt P16581).
T3 sequence (P16581 22-610): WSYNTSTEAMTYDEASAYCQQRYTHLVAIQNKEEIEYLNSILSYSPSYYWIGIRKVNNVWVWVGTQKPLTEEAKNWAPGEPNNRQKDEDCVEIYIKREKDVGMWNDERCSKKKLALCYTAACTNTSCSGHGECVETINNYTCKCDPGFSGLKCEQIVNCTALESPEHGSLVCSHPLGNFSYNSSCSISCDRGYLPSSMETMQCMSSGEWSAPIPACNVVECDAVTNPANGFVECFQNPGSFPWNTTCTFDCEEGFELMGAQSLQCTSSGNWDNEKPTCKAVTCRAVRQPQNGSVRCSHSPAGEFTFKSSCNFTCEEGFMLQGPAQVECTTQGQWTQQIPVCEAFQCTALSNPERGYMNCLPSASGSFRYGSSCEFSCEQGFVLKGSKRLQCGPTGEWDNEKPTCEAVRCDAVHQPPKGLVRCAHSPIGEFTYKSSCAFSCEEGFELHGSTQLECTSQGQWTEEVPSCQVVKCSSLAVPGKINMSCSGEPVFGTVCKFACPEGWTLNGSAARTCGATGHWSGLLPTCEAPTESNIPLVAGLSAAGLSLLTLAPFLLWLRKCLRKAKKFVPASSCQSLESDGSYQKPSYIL
The note with it: in humans in vitro; cited from earlier work.

For data set [4] the following is noted: different animal models; cited from earlier work.
For data set [5] the following is noted: administered systemically; cited from earlier work.

On to `O=C(O)Cc1cccc(-c2cc(CCCCCCc3ccc(OC4O[C@H](CO)C(O)[C@H](O)[C@@H]4O)c(-c4cccc(CC(=O)O)c4)c3)ccc2OC2O[C@H](CO)C(O)[C@H](O)[C@@H]2O)c1` (stereo partly drawn) [Bimosiamose (TBC1269)], for which the L-selectin-dependent adhesion result in data set [1] is given as “inhibit”. Besides, in data set [2], the P-selectin-dependent adhesion result is reported as “inhibit”. Besides, the E-selectin-dependent adhesion entry in data set [3] is reported as “inhibit”. The anti-inflammatory effects entry in data set [4] is listed as “anti-inflammatory effects”.
Take “inclacumab: monoclonal antibody directed towards P-selectin”: the tolerability in patients result in data set [5] is reported as “well tolerated”.

B1: crizanlizumab: Humanized monoclonal anti-P-selectin antibody (antibody, chains of the INN, looked up, V domains shown)
VH: QVQLVQSGAEVKKPGASVKVSCKVSGYTFTSYDINWVRQAPGKGLEWMGWIYPGDGSIKYNEKFKGRVTMTVDKSTDTAYMELSSLRSEDTAVYYCARRGEYGNYEGAMDYWGQGTLVTVSS
VL: DIQMTQSPSSLSASVGDRVTITCKASQSVDYDGHSYMNWYQQKPGKAPKLLIYAASNLESGVPSRFSGSGSGTDFTLTISSLQPEDFATYYCQQSDENPLTFGGGTKVEIK
For B1, in data set [5], the tolerability in patients entry is listed as “well tolerated”.
